For orientation: IC50 means the concentration that gives 50% inhibition.

The target in the test is Human Cav3.1 (Homo sapiens (Human), UniProt O43497). The test can be described thus: Human Cav3.1 calcium channel patch clamp assay (SyncroPatch 384PE, HEK-293 natClytin/TASK1+Cav3.1 cell line). Particulars: voltage dependent block (VDB); read-out: Cav3.1 (VDB) IC50. It is filed as cell-based. The protocol: Pulse generation and data collection were performed with PatchController384 V1.3.0 and DataController384 V1.2.1 (Nanion Technologies). Off-line analysis was performed using Excel and Graphpad Prism (V 8.4.2) with complete data files uploaded to Dotmatics. The access resistance and apparent membrane capacitance were estimated using built-in protocols. Current was recorded in whole cell configuration from a population of cells. The cells were lifted, triturated, and resuspended at 800,000 cells/ml. The cells were allowed to recover in the cell hotel prior to experimentation. Currents were recorded at room temperature. The external solution contained the following (in mM): NaCl 80, NMDG 60, KCl 4, MgCl2 1, CaCl2 6, glucose 5 and HEPES 10 (pH=7.4, Osmolarity ˜300 mOsm). The extracellular solution was used as the wash, reference and compound delivery solution. […] The compound plate was created at 2× concentrated in the extracellular solution. The compound was diluted to 1:2 when added to the recording well. The amount of DMSO in the extracellular solution was held constant at the level used for the highest tested concentration. For the voltage clamp experiments on Cav3.1, data were sampled at 10 KHz. After establishment of the seal and the passage in the whole cell configuration, the cells were held at −120 mV. Cav3.1 current was evoked using a 100 ms step to −20 mV (to measure resting state block), followed by a 1600 ms step to −65 mV and a second 100 ms step to −20 mV (to measure voltage dependent block). The voltage protocol was applied every 15 seconds in the absence and in the presence of the compounds under investigation. […] Current amplitude (pA) was measured in the peak 1 and 2. The average of last 3 sweeps of each liquid period (vehicle, compound under investigation, full block) was calculated. Nickel-sensitive current was used to calculate the % of inhibition in the presence of the compound under investigation.
Human Cav3.1, sequence (O43497 whole entry): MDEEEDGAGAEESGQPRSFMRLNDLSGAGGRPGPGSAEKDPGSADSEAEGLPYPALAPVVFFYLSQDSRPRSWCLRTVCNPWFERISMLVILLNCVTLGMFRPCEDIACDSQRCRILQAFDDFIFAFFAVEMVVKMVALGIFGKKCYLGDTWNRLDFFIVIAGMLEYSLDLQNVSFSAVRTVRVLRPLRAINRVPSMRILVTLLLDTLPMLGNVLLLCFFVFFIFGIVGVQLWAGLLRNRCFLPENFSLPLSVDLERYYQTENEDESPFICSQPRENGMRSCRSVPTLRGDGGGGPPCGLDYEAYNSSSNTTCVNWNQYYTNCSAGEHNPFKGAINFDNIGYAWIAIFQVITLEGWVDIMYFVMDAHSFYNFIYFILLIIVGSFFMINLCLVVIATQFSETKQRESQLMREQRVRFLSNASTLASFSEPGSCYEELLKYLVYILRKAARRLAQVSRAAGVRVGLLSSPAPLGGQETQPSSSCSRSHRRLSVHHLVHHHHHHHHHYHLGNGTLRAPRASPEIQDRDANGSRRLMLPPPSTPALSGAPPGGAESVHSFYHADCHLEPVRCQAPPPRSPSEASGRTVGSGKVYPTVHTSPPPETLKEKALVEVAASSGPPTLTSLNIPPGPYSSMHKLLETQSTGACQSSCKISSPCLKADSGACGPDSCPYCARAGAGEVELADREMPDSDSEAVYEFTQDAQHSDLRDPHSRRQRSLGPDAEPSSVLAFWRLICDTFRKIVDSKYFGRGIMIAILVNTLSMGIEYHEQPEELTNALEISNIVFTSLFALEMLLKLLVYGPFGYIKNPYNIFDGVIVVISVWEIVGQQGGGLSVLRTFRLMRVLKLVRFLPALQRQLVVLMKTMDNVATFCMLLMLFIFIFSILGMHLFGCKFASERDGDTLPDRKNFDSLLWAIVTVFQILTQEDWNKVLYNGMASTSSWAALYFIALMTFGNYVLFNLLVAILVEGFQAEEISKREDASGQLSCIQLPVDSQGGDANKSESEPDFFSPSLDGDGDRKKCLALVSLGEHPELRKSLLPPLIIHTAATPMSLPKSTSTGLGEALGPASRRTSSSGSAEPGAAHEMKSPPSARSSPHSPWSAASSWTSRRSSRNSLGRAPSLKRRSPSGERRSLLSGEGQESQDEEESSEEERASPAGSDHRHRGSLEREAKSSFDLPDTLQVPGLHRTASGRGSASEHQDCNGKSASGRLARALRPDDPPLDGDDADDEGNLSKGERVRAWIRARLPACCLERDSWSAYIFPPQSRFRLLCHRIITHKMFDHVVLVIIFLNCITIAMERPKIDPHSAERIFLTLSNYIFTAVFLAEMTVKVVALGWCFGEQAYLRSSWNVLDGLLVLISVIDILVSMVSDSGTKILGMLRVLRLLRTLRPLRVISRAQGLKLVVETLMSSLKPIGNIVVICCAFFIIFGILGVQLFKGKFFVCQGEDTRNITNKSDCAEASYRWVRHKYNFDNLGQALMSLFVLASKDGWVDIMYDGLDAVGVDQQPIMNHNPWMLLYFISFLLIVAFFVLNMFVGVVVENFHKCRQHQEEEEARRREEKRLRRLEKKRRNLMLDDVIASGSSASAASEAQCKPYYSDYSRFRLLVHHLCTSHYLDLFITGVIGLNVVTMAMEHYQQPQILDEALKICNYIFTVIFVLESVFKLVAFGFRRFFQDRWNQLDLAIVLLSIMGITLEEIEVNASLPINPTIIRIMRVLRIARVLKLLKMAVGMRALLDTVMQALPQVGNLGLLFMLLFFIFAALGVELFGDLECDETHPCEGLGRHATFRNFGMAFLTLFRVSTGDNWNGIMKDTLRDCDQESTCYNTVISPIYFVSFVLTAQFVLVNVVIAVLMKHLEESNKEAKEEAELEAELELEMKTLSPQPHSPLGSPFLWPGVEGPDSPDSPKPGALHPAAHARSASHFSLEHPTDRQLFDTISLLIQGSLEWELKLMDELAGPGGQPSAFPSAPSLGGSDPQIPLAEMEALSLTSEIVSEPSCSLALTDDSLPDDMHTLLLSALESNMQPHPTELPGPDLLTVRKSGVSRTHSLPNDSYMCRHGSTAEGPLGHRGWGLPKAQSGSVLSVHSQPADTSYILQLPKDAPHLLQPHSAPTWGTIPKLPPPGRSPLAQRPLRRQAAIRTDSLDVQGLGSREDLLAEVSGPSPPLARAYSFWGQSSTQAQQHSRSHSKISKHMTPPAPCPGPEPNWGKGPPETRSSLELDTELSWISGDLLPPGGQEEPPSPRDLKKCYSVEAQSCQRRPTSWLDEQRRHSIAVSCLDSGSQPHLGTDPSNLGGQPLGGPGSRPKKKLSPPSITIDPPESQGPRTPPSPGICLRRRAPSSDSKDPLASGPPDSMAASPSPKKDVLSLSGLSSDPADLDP
Pulse generation and data collection were performed with PatchController384 V1.3.0 and DataController384 V1.2.1 (Nanion Technologies). Off-line analysis was performed using Excel and Graphpad Prism (V 8.4.2) with complete data files uploaded to Dotmatics. The access resistance and apparent membrane capacitance were estimated using built-in protocols. Current was recorded in whole cell configuration from a population of cells.
The cells were lifted, triturated, and resuspended at 800,000 cells/ml. The cells were allowed to recover in the cell hotel prior to experimentation. Currents were recorded at room temperature. The external solution contained the following (in mM): NaCl 80, NMDG 60, KCl 4, MgCl2 1, CaCl2 6, glucose 5 and HEPES 10 (pH=7.4, Osmolarity ˜300 mOsm). The extracellular solution was used as the wash, reference and compound delivery solution.
The compound plate was created at 2× concentrated in the extracellular solution. The compound was diluted to 1:2 when added to the recording well. The amount of DMSO in the extracellular solution was held constant at the level used for the highest tested concentration. For the voltage clamp experiments on Cav3.1, data were sampled at 10 KHz. After establishment of the seal and the passage in the whole cell configuration, the cells were held at −120 mV. Cav3.1 current was evoked using a 100 ms step to −20 mV (to measure resting state block), followed by a 1600 ms step to −65 mV and a second 100 ms step to −20 mV (to measure voltage dependent block). The voltage protocol was applied every 15 seconds in the absence and in the presence of the compounds under investigation. […] Current amplitude (pA) was measured in the peak 1 and 2. The average of last 3 sweeps of each liquid period (vehicle, compound under investigation, full block) was calculated. Nickel-sensitive current was used to calculate the % of inhibition in the presence of the compound under investigation.
Background: In patch-clamp work, channel activity is measured electrically.
In the case of `O=C(Nc1cc(F)cc(C(F)F)c1)C1CCC2(CC1)CN(CCNC(=O)C1(C(F)(F)F)CC1)C2` [Example 50], the IC50 is 284 nM.

For `CC(C)(C)NC(=O)CN1CC2(CCC(F)(C(=O)Nc3cc(F)cc(C(F)F)c3)CC2)C1` [Example 51], the IC50 turned out to be 469 nM.

As to `CC1(C(=O)NCCN2CC3(CCC(C(=O)Nc4cc(F)cc(C(F)F)c4)CC3)C2)CCC1` [Example 53], the 50% inhibitory concentration (IC50) turned out to be 447 nM.

As for `CC(C)(C)NC(=O)CN1CC2(CCC(C(=O)Nc3cccc(OC(F)F)c3)CC2)C1` [Example 55], the IC50 was found to be 296 nM.

Take `CC(C)(C)OC(=O)CN1CC2(CCC(C(=O)Nc3cc(F)cc(Cl)c3)CC2)C1` [Example 56]: the half-maximal inhibitory concentration (IC50) turned out to be 513 nM.

For `O=C(CN1CC2(CCC(C(=O)Nc3cc(F)cc(Cl)c3)CC2)C1)OC1CCCC1` [Example 57], the concentration for half-maximal inhibition (IC50) worked out at 709 nM.

Regarding `O=C(CN1CC2(CCC(C(=O)Nc3cc(F)cc(Cl)c3)CC2)C1)NC1(C(F)(F)F)CC1` [Example 58], the IC50 worked out at 59.7 nM.

As for `CC1(NC(=O)CN2CC3(CCC(C(=O)Nc4cc(F)cc(Cl)c4)CC3)C2)CC1` [Example 59], the IC50 is 146 nM.

In the case of `O=C(Nc1cc(F)cc(Cl)c1)C1CCC2(CC1)CN(CC1(O)CCC(F)(F)CC1)C2` [Example 60], the IC50 came out at 130 nM.

For the compound `O=C(Nc1cc(F)cc(Cl)c1)C1CCC2(CC1)CN(CC1CCC(F)(F)CC1)C2` [Example 61], the IC50 was found to be 440 nM.

Consider `CC(C)(C)NC(=O)CN1CC2(CCC(C(=O)Nc3cccc(C(F)F)c3)CC2)C1` [Example 62], for which the IC50 was 511 nM.

Take `CC(C)(C)NC(=O)CN1CC2(CCC(C(=O)Nc3cccc(OC(F)(F)F)c3)CC2)C1` [Example 63]: the IC50 was 492 nM.

As to `CC1(OC(=O)CN2CC3(CCC(C(=O)Nc4cc(F)cc(Cl)c4)CC3)C2)CC1` [Example 64], the IC50 was 617 nM.

For the compound `CC(C)(NC(=O)CN1CC2(CCC(C(=O)Nc3cccc(C(F)F)c3)CC2)C1)C(F)(F)F` [Example 65], the IC50 was determined as 430 nM.

Turning to `CC(C)(NC(=O)CN1CC2(CCC(C(=O)Nc3cccc(C(F)(F)F)c3)CC2)C1)C(F)(F)F` [Example 66], the IC50 stood at 372 nM.

With `CC(C)(C)ONC(=O)CN1CC2(CCC(C(=O)Nc3cc(F)cc(Cl)c3)CC2)C1` [Example 67], the IC50 stood at 580 nM.

With `CC(C)(NC(=O)CN1CC2(CCC(C(=O)Nc3cccc(OC(F)F)c3)CC2)C1)C(F)(F)F` [Example 69], the IC50 was found to be 235 nM.

Take `CC(C)(NC(=O)CN1CC2(CCC(C(=O)Nc3cccc(OC(F)(F)F)c3)CC2)C1)C(F)(F)F` [Example 70]: the IC50 stood at 333 nM.

Regarding `CC1(C)CCC(=O)N1CCN1CC2(CCC(C(=O)Nc3cc(F)cc(C(F)F)c3)CC2)C1` [Example 71], the 50% inhibitory concentration (IC50) was 588 nM.

Take `CN(CCN1CC2(CCC(C(=O)Nc3cc(F)cc(C(F)F)c3)CC2)C1)C(=O)C1(C)CC1` [Example 72]: the IC50 was 1040 nM.

Consider `O=C(Nc1cc(F)cc(Cl)c1)C1CCC2(CC1)CN(CC1(F)CCC(F)(F)CC1)C2` [Example 73], for which the IC50 is 333 nM.

In the case of `O=C(Nc1cc(F)cc(Cl)c1)C1CCC2(CC1)CN(CC(F)(F)C1CCCCC1)C2` [Example 74], the IC50 was 941 nM.

Take `COc1cccc(NC(=O)C2CCC3(CC2)CN(CC(=O)NC(C)(C)C)C3)c1` [Example 75]: the IC50 turned out to be 1080 nM.

For the compound `CC1(S(=O)(=O)NCCN2CC3(CCC(C(=O)Nc4cc(F)cc(C(F)F)c4)CC3)C2)CC1` [Example 76], the concentration for half-maximal inhibition (IC50) was 550 nM.

`O=C(Nc1cc(F)cc(Cl)c1)C1CCC2(CC1)CN(CC(F)C1CCCC1)C2` (stereo not drawn) [Example 77]: the IC50 was 439 nM.

With `O=C(Nc1cc(F)cc(Cl)c1)C1CCC2(CC1)CN(CC(F)(F)C1CCCC1)C2` [Example 78], the IC50 was 1070 nM.

As for `O=C(Nc1cc(F)cc(C(F)F)c1)C1CCC2(CC1)CN(CCS(=O)(=O)c1ccccc1)C2` [Example 80], the IC50 was 428 nM.

For the compound `CC1(OC(=O)NCCN2CC3(CCC(C(=O)Nc4cc(F)cc(Cl)c4)CC3)C2)CC1` [Example 81], the IC50 came to 307 nM.

For `COc1cc(F)cc(NC(=O)C2CCC3(CC2)CN(CC(=O)NC2(C(F)(F)F)CC2)C3)c1` [Example 82], the IC50 worked out at 238 nM.

As for `COc1cc(F)cc(NC(=O)C2CCC3(CC2)CN(CC(=O)NC2(C(F)(F)F)CCC2)C3)c1` [Example 84], the 50% inhibitory concentration (IC50) was determined as 110 nM.

As to `O=C(CN1CC2(CCC(C(=O)Nc3cc(F)cc(C(F)F)c3)CC2)C1)NC1(C(F)(F)F)COC1` [Example 86], the IC50 turned out to be 344 nM.

In the case of `CC(C)(C)S(=O)(=O)CCN1CC2(CCC(C(=O)Nc3cc(F)cc(C(F)F)c3)CC2)C1` [Example 87], the half-inhibitory concentration (IC50) came to 855 nM.

On to `COc1cc(F)cc(NC(=O)C2CCC3(CC2)CN(CCS(=O)(=O)C(C)(C)C)C3)c1` [Example 88], for which the IC50 was found to be 1010 nM.

With `O=C(CN1CC2(CCC(C(=O)Nc3cc(F)cc(Cl)c3)CC2)C1)NC1(C(F)(F)F)COC1` [Example 89], the IC50 was 522 nM.

Regarding `COc1cc(F)cc(NC(=O)C2CCC3(CC2)CN(CC(F)(F)C2CCCCC2)C3)c1` [Example 90], the IC50 amounted to 802 nM.

Regarding `O=C(Nc1cc(F)cc(Cl)c1)C1CCC2(CC1)CN(CCS(=O)(=O)c1ccccc1)C2` [Example 91], the IC50 was found to be 576 nM.

Take `O=C(Nc1cc(F)cc(C(F)F)c1)C1CCC2(CC1)CN(CC(F)(F)C1CCCCC1)C2` [Example 92]: the IC50 was determined as 905 nM.

Turning to `O=C(Nc1cc(F)cc(C(F)F)c1)C1CCC2(CC1)CN(CC(F)C1CCCC1)C2` (stereo not drawn) [Example 93], the half-inhibitory concentration (IC50) worked out at 645 nM.

Turning to `N#CC1(CN2CC3(CCC(C(=O)Nc4cc(F)cc(C(F)F)c4)CC3)C2)CCCCC1` [Example 94], the IC50 was found to be 612 nM.

Take `CC(C)(C)S(=O)(=O)CCN1CC2(CCC(C(=O)Nc3cc(F)cc(Cl)c3)CC2)C1` [Example 95]: the IC50 worked out at 597 nM.

For `COc1cc(F)cc(NC(=O)C2CCC3(CC2)CN(CC2(C#N)CCCCC2)C3)c1` [Example 96], the IC50 stood at 814 nM.

`COc1cc(F)cc(NC(=O)C2CCC3(CC2)CN(CC2(C#N)CCC(F)(F)CC2)C3)c1` [Example 97]: the IC50 turned out to be 550 nM.

As for `N#CC1(CN2CC3(CCC(C(=O)Nc4cc(F)cc(Cl)c4)CC3)C2)CCCCC1` [Example 98], the IC50 turned out to be 352 nM.

As to `N#CC1(CN2CC3(CCC(C(=O)Nc4cc(F)cc(C(F)F)c4)CC3)C2)CCC(F)(F)CC1` [Example 99], the IC50 was determined as 537 nM.

As to `O=C(Nc1cccc(Cl)c1)C1CCC2(CC1)CN(CC(F)(F)C1CCCCC1)C2` [Example 101], the IC50 was found to be 488 nM.

For the compound `O=C(Nc1cccc(Cl)c1)C1CCC2(CC1)CN(CCS(=O)(=O)c1ccccc1)C2` [Example 102], the 50% inhibitory concentration (IC50) is 497 nM.

Consider `N#CC1(CN2CC3(CCC(C(=O)Nc4cccc(Cl)c4)CC3)C2)CCCCC1` [Example 103], for which the IC50 was 544 nM.

Turning to `O=C(CN1CC2(CCC(C(=O)Nc3cccc(Cl)c3)CC2)C1)NC1(C(F)(F)F)CC1` [Example 104], the IC50 was 302 nM.

`O=C(CN1CC2(CCC(C(=O)Nc3cccc(Cl)c3)CC2)C1)NC1(C(F)(F)F)CCC1` [Example 105]: the half-maximal inhibitory concentration (IC50) was found to be 204 nM.

Consider `CC(C)(C)S(=O)(=O)CCN1CC2(CCC(C(=O)Nc3cccc(Cl)c3)CC2)C1` [Example 106], for which the IC50 was 739 nM.

Consider `N#CC1(CN2CC3(CCC(C(=O)Nc4cc(F)cc(Cl)c4)CC3)C2)CCC(F)(F)CC1` [Example 107], for which the IC50 stood at 427 nM.

For the compound `O=C(CN1CC2(CCC(C(=O)Nc3cccc(OC(F)F)c3)CC2)C1)NC1(C(F)(F)F)CC1` [Example 108], the IC50 was 364 nM.

Take `O=C(CN1CC2(CCC(C(=O)Nc3cccc(OC(F)F)c3)CC2)C1)NC1(C(F)(F)F)CCC1` [Example 109]: the IC50 was 231 nM.

Regarding `N#CC1(CN2CC3(CCC(C(=O)Nc4cccc(Cl)c4)CC3)C2)CCC(F)(F)CC1` [Example 110], the IC50 stood at 706 nM.

The values are drawn from US20250214932A1, “T-TYPE CALCIUM CHANNEL MODULATORS COMPRISING AN AZASPIRONONANE CORE AND METHODS OF USE THEREOF” (Praxis Precision Medicines, Inc., priority 2022, published 2025).
